Broadly, the EC50 is the concentration needed to bring the measured effect to its halfway point.

The experiment has as its target human AMPK (full-length γ1, β1 and α1 subunits) (Homo sapiens (Human), UniProt Q13131+Q9Y478). Kind of experiment: AMPK in vitro biochemical assay (33P-based, SAMS peptide, PP2A dephosphorylation). The conditions noted are these: for EC50: activation of phosphorylated AMPK, 33P-ATP, SAMS peptide, PP2A treatment, 4-parameter fit; for Emax / Maximum: counts as % of positive control wells (enzyme, allosteric activator or AMP, PP2A and substrate); for Emax: read-out: Maximum. The source says: We designed a tricistronic AMPK expression construct that included open reading frames encoding the full-length γ1, β1 and α1 subunits of human AMPK with a ribosome-binding site (RBS) ahead of each coding region and subcloned this into pET-14b expression vector (Novagen, Madison, Wis.) using standard molecular biology techniques. AMPK tricistronic construct was transformed into E. coli BL21-CodonPlus™ (DE3)-RIPL strain (Stratagene) and transformants were selected on LB (Luria-Bertani) agar plates containing ampicillin (100 μg/ml). […] Optical density sample measurements were made on an UltroSpec 2000 spectrophotometer (Pharmacia Biotech) at 600 nm. When the cell density reached ˜0.9 OD, the temperature was reduced to 18° C. and the culture was induced at 18° C. with 0.1 mM Isopropylthiogalactoside (IPTG). […] The cell pellets were aliquoted into four portions, flash frozen in liquid nitrogen and were stored at −80° C. until purification. For purification, frozen cell paste was thawed and resuspended in 50 ml lysis buffer (50 mM Tris, pH 8.0, 150 mM NaCl, 10% glycerol, 2 mM Tris-2-carboxyethyl phosphine (TCEP), 20 mM imidazole and 0.001% Triton X-100). After sonication, insoluble material was removed by centrifugation at 15,000 rpm in a Sorvall® RC5 plus centrifuge for 30 min at 4° C. and the supernatant was loaded onto a 5 ml HisTrap™ HP column (GE Healthcare, Piscataway, N.J.) and washed with five column volumes of lysis buffer. Bound proteins were eluted using an elution buffer containing 300 mM imidazole. Fractions containing AMPK subunits were pooled based on SDS-10% PAGE analysis and dialyzed overnight in dialysis buffer (50 mM Tris, pH 8.0, 150 mM NaCl, 10% glycerol, 2 mM TCEP, and 0.001% Triton X-100). […] The phosphorylated AMPK complex was re-purified on HisTrap™ HP column as before, dialyzed over night in dialysis buffer. The phosphorylated AMPK complex was further purified by gel filtration chromatography with a Superdex 200 HiLoad 16/60 column (GE Healthcare) in SEC buffer (50 mM Tris, pH 8.0, 150 mM NaCl, 10% glycerol, 2 mM TCEP, and 0.001% Triton X-100).
The harvest time (72 hours post infection) was indicated by percent cell viability (to 85-90%) and increased cell diameter (3-4 μm). […] For purification, the cell paste was resuspended in 500 mL lysis buffer (50 mM Tris pH 8.0, 150 mM NaCl, 25 mM imidazole, 10% glycerol, 2 mM MgCl2, 2 mM TCEP+protease inhibitor cocktail. After lysis, cellular debris was removed by centrifugation at 36K×g for 1 hour. The resulting supernatant was filtered at 0.2 micron before applying to a 1 mL nickel charged IMAC column (HisTrap, GE). The bound resin was washed to baseline with 50 CV of 50 mM Tris pH 8.0, 150 mM NaCl, 25 mM imidazole, 10% glycerol, 2 mM MgCl2, 2 mM TCEP before eluting over a 20 CV gradient to 100% with wash buffer containing 500 mM imidazole. Pooled fractions containing PP2A were combined and diluted 10× with 50 mM Tris pH 8.0, 10% glycerol, 1 mM TCEP and applied to a 1 mL AIEX resin (HiTrap QFF, GE). The bound resin was washed with dilution buffer and PP2A was eluted over a 20 CV gradient to 100% 50 mM Tris pH 8.0, 500 mM NaCl, 10% glycerol, 1 mM TCEP and was further diluted 1:1 with 50 mM Tris pH 8.0, 150 mM NaCl, 10% glycerol, and 1 mM TCEP buffer.
The biochemical EC50 (half-maximal concentration required for full activation) of compounds for the activation of AMPK was evaluated by ^33P-based assay using SAMS peptide (commercially available) derived from ACC-1. Twenty μl of phosphorylated AMPK diluted in assay buffer, (50 mM HEPES, 1 mM EGTA, 10 mM MgCl2, 0.25 mM DTT, 0.01% Tween-20, 0.01% BSA (pH 7.5)) was added to 384 well plates containing 1 μL of test compound. Following a fifteen minute room temperature incubation, 10 μL of protein phosphatase PP2A was added to the plate to dephosphorylate pThr172 of AMPK. […] The reaction was terminated after 60 minutes incubation at room temperature by the addition of 15 μL of 2% H3PO4.

human AMPK (full-length γ1, β1 and α1 subunits), sequence (Q13131 whole entry): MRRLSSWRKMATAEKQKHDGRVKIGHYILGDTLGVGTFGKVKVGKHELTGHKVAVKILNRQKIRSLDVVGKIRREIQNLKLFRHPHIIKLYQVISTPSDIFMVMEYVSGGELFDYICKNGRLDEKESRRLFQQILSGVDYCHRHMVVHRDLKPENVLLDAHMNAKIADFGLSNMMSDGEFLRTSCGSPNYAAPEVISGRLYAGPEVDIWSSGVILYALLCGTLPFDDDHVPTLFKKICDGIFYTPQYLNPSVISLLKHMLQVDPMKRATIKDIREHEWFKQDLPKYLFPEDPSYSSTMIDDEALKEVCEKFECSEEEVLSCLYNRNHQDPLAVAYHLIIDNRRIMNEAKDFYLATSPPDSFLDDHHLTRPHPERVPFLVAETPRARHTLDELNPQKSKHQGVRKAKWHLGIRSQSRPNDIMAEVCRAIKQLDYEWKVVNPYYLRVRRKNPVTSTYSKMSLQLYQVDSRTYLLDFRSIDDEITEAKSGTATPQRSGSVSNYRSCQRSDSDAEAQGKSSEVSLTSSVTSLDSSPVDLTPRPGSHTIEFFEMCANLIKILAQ
human AMPK (full-length γ1, β1 and α1 subunits), sequence (Q9Y478 whole entry): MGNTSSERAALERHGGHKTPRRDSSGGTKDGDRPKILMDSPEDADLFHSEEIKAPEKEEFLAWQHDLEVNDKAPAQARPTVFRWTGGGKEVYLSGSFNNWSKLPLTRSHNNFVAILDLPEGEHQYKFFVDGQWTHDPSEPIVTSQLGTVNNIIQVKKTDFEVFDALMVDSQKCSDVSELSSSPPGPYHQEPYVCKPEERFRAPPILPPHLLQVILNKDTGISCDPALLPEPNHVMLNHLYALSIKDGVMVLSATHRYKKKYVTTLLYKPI
human AMPK (full-length γ1, β1 and α1 subunits), sequence (P54619 whole entry partner): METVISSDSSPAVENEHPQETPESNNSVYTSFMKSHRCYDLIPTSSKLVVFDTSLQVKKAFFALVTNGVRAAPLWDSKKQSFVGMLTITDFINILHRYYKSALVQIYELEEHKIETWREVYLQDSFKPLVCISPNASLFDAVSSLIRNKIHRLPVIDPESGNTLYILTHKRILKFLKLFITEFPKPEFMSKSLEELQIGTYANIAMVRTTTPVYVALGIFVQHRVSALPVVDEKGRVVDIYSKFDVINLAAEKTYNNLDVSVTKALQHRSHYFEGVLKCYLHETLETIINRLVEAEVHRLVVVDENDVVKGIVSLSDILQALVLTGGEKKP

Take `O=C(O)c1n[nH]c2cc(Cl)c(-c3ccc(C4CCCCC4)cc3)cc12` [Example 110, 6-Chloro-5-(4-cyclohexylphenyl)-1H-indazole-3-carboxylic acid]: the EC50 turned out to be 206 nM and the Emax is 90%. As for `COc1ccc(-c2cc3c(C(=O)NS(=O)(=O)c4ccccc4)n[nH]c3cc2Cl)cc1` [Example 118, 6-Chloro-5-(4-methoxyphenyl)-N-(phenylsulfonyl)-1H-indazole-3-carboxamide], the EC50 was determined as 169 nM and the Emax worked out at 125%. The corresponding values for `O=C(O)c1c[nH]c2cc(Cl)c(-c3ccc(OCc4ncccn4)cc3)cc12` [Example 160, 6-chloro-5-[4-(pyrimidin-2-ylmethoxy)phenyl]-1H-indole-3-carboxylic acid] are 17.3 nM and 118%. For the molecule `O=C(O)c1n[nH]c2cc(Cl)c(-c3ccc(-c4ccccc4O)cc3)cc12` [Example 101, 6-Chloro-5-(2′-hydroxy-[1,1′-biphenyl]-4-yl)-1H-indazole-3-carboxylic acid], the EC50 was 1.8 nM and the Emax was 61%.

On to `COC[C@@H](C)Oc1ccc(-c2cc3c(C(=O)O)c[nH]c3cc2Cl)cc1` [Example 158, 6-chloro-5-(4-{[(2R)-1-methoxypropan-2-yl]oxy}phenyl)-1H-indole-3-carboxylic acid], for which the response was half-maximal at 125 nM (EC50) and the Emax amounted to 146%. With `COC[C@H](C)Oc1ccc(-c2cc3c(C(=O)O)c[nH]c3cc2Cl)cc1` [Example 159, 6-chloro-5-(4-{[(2S)-1-methoxypropan-2-yl]oxy}phenyl)-1H-indole-3-carboxylic acid], a half-maximal effect (EC50) was put at 47.8 nM and the Emax amounted to 98.6%. Take `COc1cc(C2(O)CCC2)ccc1-c1cc2c(C(=O)O)c[nH]c2cc1Cl` [Example 62, 6-chloro-5-[4-(1-hydroxycyclobutyl)-2-methoxyphenyl]-1H-indole-3-carboxylic acid]: the response was half-maximal at 33.3 nM (EC50) and the Emax is 74%. `O=C(O)c1c[nH]c2cc(Cl)c(-c3ccc(C4(C(=O)O)CC4)cc3)cc12` [Example 88, 5-[4-(1-carboxycyclopropyl)phenyl]-6-chloro-1H-indole-3-carboxylic acid]: the EC50 is 58.1 nM and the Emax amounted to 78%.

`N#Cc1cc2[nH]cc(C(=O)O)c2cc1-c1ccc(OCCO)cc1` [Example 95, 6-cyano-5-[4-(2-hydroxyethoxy)phenyl]-1H-indole-3-carboxylic acid]: a half-maximal effect (EC50) was put at 830 nM and the Emax was 91%.

In the case of `N#Cc1cc(C2(O)CCC2)ccc1-c1cc2c(C(=O)O)c[nH]c2cc1Cl` [Example 69, 6-chloro-5-[2-cyano-4-(1-hydroxycyclobutyl)phenyl]-1H-indole-3-carboxylic acid], the midpoint of the response, the EC50, lay at 264 nM and the Emax worked out at 74%. `O=C(O)c1c[nH]c2cc(Cl)c(-c3ccc(C4(O)CCC4)cc3F)cc12` [Example 13, 6-chloro-5-[2-fluoro-4-(1-hydroxycyclobutyl)phenyl]-1H-indole-3-carboxylic acid]: the EC50 came to 6.9 nM and the Emax came to 73%.

`CC(=O)N1CC(Oc2ccc(-c3cc4c(C(=O)O)c[nH]c4cc3Cl)cc2)C1` [Example 8, 5-{4-[(1-acetylazetidin-3-yl)oxy]phenyl}-6-chloro-1H-indole-3-carboxylic acid]: the EC50 is 220 nM and the Emax was found to be 94%. For `CN1CCN(CCCOc2ccc(-c3cc4c(C(=O)O)c[nH]c4cc3Cl)cc2)CC1` [Example 53, 6-chloro-5-{4-[3-(4-methylpiperazin-1-yl)propoxy]phenyl}-1H-indole-3-carboxylic acid], the response was half-maximal at 22 nM (EC50) and the Emax worked out at 120%.

For the molecule `O=C(O)c1c[nH]c2cc(Cl)c(-c3ccc(OCCN4CCNCC4)cc3)cc12` [Example 48, 6-chloro-5-{4-[2-(piperazin-1-yl)ethoxy]phenyl}-1H-indole-3-carboxylic acid], the EC50 was 110 nM and the Emax turned out to be 89%. `O=C(O)c1n[nH]c2cc(Cl)c(-c3ccc(C4(CO)CCCC4)cc3)cc12` [Example 127, 6-Chloro-5-(4-(1-(hydroxymethyl)cyclopentyl)phenyl)-1H-indazole-3-carboxylic acid]: a half-maximal effect (EC50) was put at 17.2 nM and the Emax is 81%.

Consider `O=C(O)c1c[nH]c2cc(Cl)c(-c3ccc(CO)cc3)cc12` [Example 2, 6-Chloro-5-[4-(hydroxymethyl)phenyl]-1H-indole-3-carboxylic acid], for which the midpoint of the response, the EC50, lay at 64.7 nM and the Emax was 88%. For `O=C(O)c1c[nH]c2cc(Cl)c(-c3ccc(C4(CO)CC4)cc3)cc12` [Example 75, 6-chloro-5-{4-[1-(hydroxymethyl)cyclopropyl]phenyl}-1H-indole-3-carboxylic acid], the EC50 came to 0.5 nM and the Emax amounted to 91%. `O=C(O)c1c[nH]c2cc(Cl)c(-c3ccc(C4CCCO4)cc3)cc12` (single isomer, unassigned) [Example 154, 6-chloro-5-[4-(tetrahydrofuran-2-yl)phenyl]-1H-indole-3-carboxylic acid]: the EC50 turned out to be 28.3 nM and the Maximum is 104.8%. As for `COc1ccc(-c2cc3c(C(=O)O)n[nH]c3cc2C)c(F)c1` [Example 98, 5-(2-Fluoro-4-methoxyphenyl)-6-methyl-1H-indazole-3-carboxylic acid], the 50% effective concentration (EC50) worked out at 1050 nM and the Emax turned out to be 83%. Regarding `O=C(O)c1c[nH]c2cc(Cl)c(-c3ccc(C4(CO)COC4)cc3)cc12` [Example 96, 6-chloro-5-{4-[3-(hydroxymethyl)oxetan-3-yl]phenyl}-1H-indole-3-carboxylic acid], the EC50 was 58.1 nM and the Emax was 83%. In the case of `O=C(O)c1n[nH]c2cc(Cl)c(-c3ccc(C4CC(O)C4)cc3)cc12` [Example 126, 6-Chloro-5-(4-((1R,3R)-3-hydroxycyclobutyl)phenyl)-1H-indazole-3-carboxylic acid], the Maximum was 110%. In the case of `COc1nc(N2CCC(O)C2)ccc1-c1cc2c(C(=O)O)c[nH]c2cc1Cl` (centres unmarked) [Example 161, 6-chloro-5-[6-(3-hydroxypyrrolidin-1-yl)-2-methoxypyridin-3-yl]-1H-indole-3-carboxylic acid], the EC50 stood at 8.33 nM and the Emax stood at 92.9%. Taken in the same sequence, the figures for `O=C(O)CCOc1ccc(-c2cc3c(C(=O)O)c[nH]c3cc2Cl)cc1` [Example 90, 5-[4-(2-carboxyethoxy)phenyl]-6-chloro-1H-indole-3-carboxylic acid] were 372 nM and 120%. `COC1CCN(CCCOc2ccc(-c3cc4c(C(=O)O)c[nH]c4cc3Cl)cc2)CC1` [Example 187, 6-chloro-5-{4-[3-(4-methoxypiperidin-1-yl)propoxy]phenyl}-1H-indole-3-carboxylic acid]: the response was half-maximal at 61.4 nM (EC50) and the Emax stood at 105%.
